Assay results reported in PubChem BioAssay AID272 (DTP/NCI, 2004).
Inconclusive results are not listed.

System: Lewis lung carcinoma i.m., BDF1 mice, T/C %
Test: NCI In Vivo Anticancer Drug Screen. Data for tumor model Lewis Lung Carcinoma (intramuscular) in B6D2F1 (BDF1) mice
Conditions: schedule: Q01DX011 (ip), vehicle: saline
Method: The antitumor activity of compounds was measured in mice bearing transplantable tumors. Survival or tumor size were measured and the results are expressed as the measurement made in the treated group (T) divided by the measurement made in the vehicle treated control group (C). The tumor model used in this assay is Lewis Lung Carcinoma (intramuscular) in B6D2F1 (BDF1) mice

[1] = endpoint: mean tumor weight (est.), dose: 100.0 mg/kg/injection, higher = larger tumour
[2] = endpoint: mean tumor weight (est.), dose: 200.0 mg/kg/injection, higher = larger tumour
[3] = endpoint: median survival time, dose: 100.0 mg/kg/injection, higher = longer survival
[4] = endpoint: median survival time, dose: 200.0 mg/kg/injection, higher = longer survival

NC1CONC1=O (centres undefined) was tested, and the T/C (endpoint: mean tumor weight (est.), dose: 50.0 mg/kg/injection, higher = larger tumour) was 95 % of control, the T/C [1] was 93 % of control and the T/C [2] was 84 % of control. For the same compound, the T/C (endpoint: mean tumor weight (est.), dose: 400.0 mg/kg/injection, higher = larger tumour) was 76 % of control, the T/C (endpoint: median survival time, dose: 50.0 mg/kg/injection, higher = longer survival) was 94 % of control and the T/C [3] was 106 % of control. The T/C [4] was 106 % of control and the T/C (endpoint: median survival time, dose: 400.0 mg/kg/injection, higher = longer survival) was 124 % of control.
In the case of ClC1(c2ccccc2)c2ccc(Br)cc2-c2cc(Br)ccc21, the T/C [1] is reported as 53 % of control, the T/C [2] is reported as 40 % of control and the T/C [3] is reported as 88 % of control. The T/C [4] was 88 % of control.
In the case of Cc1cc(/C=C/c2cc[n+](C)c3ccccc23)c(O)c2ncccc12, the T/C (endpoint: mean tumor weight, dose: 6.0 mg/kg/injection, higher = larger tumour) is reported as 76 % of control and the T/C (endpoint: median survival time, dose: 6.0 mg/kg/injection, higher = longer survival) is reported as 102 % of control.
